Source: patent US20060183119A1, “Method for determining predisposition to a physiological reaction in a patient” (UNIVERSITE LAVAL, priority 2002, published 2006)
Changes are numbered by the printed parent chain. Several values for one entry are separate records, joined by “and”; a condition that tells them apart may be missing. Identical values can stand only once.

Columns and labels:
Assay type in all cases: in vitro ADME
human liver microsomes [1] = assay: SN-38 glucuronide formation by human liver microsome samples of patients; conditions: N 48
Text: To obtain statistical data on interindividual variation of SN-38 glucuronidation, we measured the SN-38-G formation, as currently known in the background art, with microsomes preparations from each patient liver sample. The glucuronide formation rates were regrouped into ranges and every sample was categorized within these ranges.

human liver microsomes [2] = assay: SN-38 glucuronidation kinetics with commercially available human liver microsomes
Text: (§1) For the determination of Vmax and Km.

UGT1A7*5 = molecular target: T1, UGT1A7*5 (Homo sapiens, UniProt Q9HAW7, G115S); assay: SN-38 glucuronidation by microsomes of HEK293 cells expressing UGT1A7*5; parameters: key to Function (SN-38G formation versus *1 allele): High: no significant difference in activity compared to *1 allele.; Low: significantly lower SN-38G formation versus *1 allele
T1 construct: expressed in transfected cells
T1 sequence (Q9HAW7 26-530 G115S): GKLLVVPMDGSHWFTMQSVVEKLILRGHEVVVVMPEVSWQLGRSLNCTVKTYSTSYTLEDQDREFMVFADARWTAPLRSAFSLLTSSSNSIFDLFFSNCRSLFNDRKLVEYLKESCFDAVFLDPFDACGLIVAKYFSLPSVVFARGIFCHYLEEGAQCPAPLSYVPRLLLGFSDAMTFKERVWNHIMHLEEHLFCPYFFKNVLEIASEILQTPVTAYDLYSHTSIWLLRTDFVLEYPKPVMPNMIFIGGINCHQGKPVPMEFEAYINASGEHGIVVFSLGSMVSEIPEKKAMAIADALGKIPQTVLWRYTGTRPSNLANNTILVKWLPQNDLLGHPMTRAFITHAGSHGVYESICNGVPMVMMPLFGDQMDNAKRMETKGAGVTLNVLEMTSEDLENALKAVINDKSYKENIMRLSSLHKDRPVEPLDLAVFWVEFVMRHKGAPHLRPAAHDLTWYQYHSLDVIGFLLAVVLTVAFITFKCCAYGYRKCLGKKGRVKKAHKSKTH
Protocol: (§2) Western blot analyses of UGT1A7 and UGT1A9 variants expressed in HEK293 cells were performed on microsomal proteins (10 μg) separated on a 10% SDS-polyacrylamide gel. After transferring the proteins, the membranes were probed with an anti-UGT1A RC-71 polyclonal antibody and with an anti-calnexin antibody. The relative levels of UGT1A9 (a) and UGT1A7 proteins (b) were determined by semi-quantitative densitometric analysis of the Enhanced chemiluminescence (ECL) image. The in vitro SN-38 activity was assessed using microsomal fractions prepared from HEK293 cells expressing the *1 and variant UGT1A9 (c) and UGT1A7 (d) alleles and incubated with 5 μM of SN-38 as described in Materials and Methods.
as §1

UGT1A7*6 = molecular target: T2, UGT1A7*6 (Homo sapiens, UniProt Q9HAW7, E139D); assay: SN-38 glucuronidation by microsomes of HEK293 cells expressing UGT1A7*6; parameters: key to Function (SN-38G formation versus *1 allele): High: no significant difference in activity compared to *1 allele.; Low: significantly lower SN-38G formation versus *1 allele
T2 construct: expressed in transfected cells
T2 sequence (Q9HAW7 26-530 E139D): T1 sequence (Q9HAW7 26-530 G115S) with S90G, E114D
Protocol: as §2, §1

UGT1A7*9 = molecular target: T3, UGT1A7*9 (Homo sapiens, UniProt Q9HAW7, G115S/N129K/R131K); assay: SN-38 glucuronidation by microsomes of HEK293 cells expressing UGT1A7*9; parameters: key to Function (SN-38G formation versus *1 allele): High: no significant difference in activity compared to *1 allele.; Low: significantly lower SN-38G formation versus *1 allele
T3 construct: expressed in transfected cells
T3 sequence (Q9HAW7 26-530 G115S/N129K/R131K): T1 sequence (Q9HAW7 26-530 G115S) with N104K, R106K
Protocol: as §2, §1

In the case of `CCc1c2c(nc3ccc(O)cc13)-c1cc3c(c(=O)n1C2)COC(=O)[C@]3(O)CC` [SN-38, 7-ethyl-10-hydroxycamptothecin], the “SN-38 glucuronide formation, glucuronidation rate, Mean” value (human liver microsomes [1]) is reported as 0.61 pmol/mg of protein/minute and 0.6118 pmol/mg of protein/minute, the “SN-38 glucuronide formation, quantile 0.0% minimum” value (human liver microsomes [1]) is reported as 0.1063 pmol/mg of protein/minute and the “SN-38 glucuronide formation, quantile 0.5%” value (human liver microsomes [1]) is reported as 0.1063 pmol/mg of protein/minute. For the same molecule, the “SN-38 glucuronide formation, quantile 2.5%” value (human liver microsomes [1]) was 0.1113 pmol/mg of protein/minute, the “SN-38 glucuronide formation, quantile 10.0%” value (human liver microsomes [1]) was 0.1641 pmol/mg of protein/minute and the “SN-38 glucuronide formation, quantile 25.0% quartile” value (human liver microsomes [1]) was 0.2763 pmol/mg of protein/minute. For the same molecule, the “SN-38 glucuronide formation, quantile 50.0% median” value (human liver microsomes [1]) was 0.4204 pmol/mg of protein/minute, the “SN-38 glucuronide formation, quantile 75.0% quartile” value (human liver microsomes [1]) was 0.9279 pmol/mg of protein/minute and the “SN-38 glucuronide formation, quantile 90.0%” value (human liver microsomes [1]) was 1.5699 pmol/mg of protein/minute. The “SN-38 glucuronide formation, quantile 97.5%” value (human liver microsomes [1]) was 1.9309 pmol/mg of protein/minute, the “SN-38 glucuronide formation, quantile 99.5%” value (human liver microsomes [1]) was 1.9735 pmol/mg of protein/minute and the “SN-38 glucuronide formation, quantile 100.0% maximum” value (human liver microsomes [1]) was 1.9735 pmol/mg of protein/minute. The Km (human liver microsomes [2]; SN-38, LCQ detector) was 6.8 ± 3 µM, the Km (human liver microsomes [2]; SN-38, fluorescent detection) was 4.8 ± 0.8 µM and the “SN-38 glucuronidating activity of the allele (in words)” value (“SN-38 glucuronidating activity” below) (UGT1A7*5) was “low”. For the same molecule, the “Function (SN-38G formation versus *1 allele)” value (UGT1A7*5; in vitro experiments) was “Low”, the “lower rates of SN-38G formation compared to UGT1A7*1” value (UGT1A7*5; range given for *5, *7 and *8 together) was 38-76% and the “SN-38 glucuronidating activity” value (UGT1A7*6) was “highest”. The “Function (SN-38G formation versus *1 allele)” value (UGT1A7*6; in vitro experiments) was “High”, the “SN-38 glucuronidating activity” value (UGT1A7*9) was “highest and low” and the “Function (SN-38G formation versus *1 allele)” value (UGT1A7*9; in vitro experiments) was “Low”.
